Common to all, as to type: cell-based
The target of assay [1] is T1, human muscarinic M3 receptor (Homo sapiens, UniProt P20309).
T1 construct: expressed in transfected cells
Kind of assay: Alphascreen Surefire phospho-ERK1/2 functional assay, M3. Conditions: for EC50: CHO cells stably expressing human M3, phospho-ERK1/2, read-out: pEC50 M3 (converted); for Emax: CHO, read-out: M3 % Emax cf. ACh. Summed up: (§1)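 Steps: plate CHO cells stably expressing the receptor in MEM-alpha with 10% dialysed FBS; starve overnight; add agonist for 5 min at 37 °C; lyse for 15 min; incubate the lysate with SureFire detection reagents for 2 h; read. The outputs are pEC50 and Emax.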
A general note: In Alpha technology, singlet oxygen from a donor bead excites a nearby acceptor bead.

Assay [2] deals with T2, human muscarinic M2 receptor (Homo sapiens, UniProt P08172).
T2 sequence (P08172 1-466): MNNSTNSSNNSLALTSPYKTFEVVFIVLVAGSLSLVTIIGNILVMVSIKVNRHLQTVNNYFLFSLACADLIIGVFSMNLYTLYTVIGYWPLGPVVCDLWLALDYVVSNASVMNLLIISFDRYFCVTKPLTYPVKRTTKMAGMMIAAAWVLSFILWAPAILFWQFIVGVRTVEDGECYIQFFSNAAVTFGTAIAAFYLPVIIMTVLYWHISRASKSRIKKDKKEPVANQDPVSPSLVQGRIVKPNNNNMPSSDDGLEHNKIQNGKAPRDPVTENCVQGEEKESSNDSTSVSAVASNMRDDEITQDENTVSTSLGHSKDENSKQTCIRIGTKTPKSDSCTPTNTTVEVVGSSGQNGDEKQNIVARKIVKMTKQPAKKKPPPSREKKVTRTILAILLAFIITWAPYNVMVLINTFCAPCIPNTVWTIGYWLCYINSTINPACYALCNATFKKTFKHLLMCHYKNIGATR
As to the kind of experiment: Alphascreen Surefire phospho-ERK1/2 functional assay, M2. The settings on record: for EC50: CHO cells stably expressing human M2, phospho-ERK1/2, read-out: pEC50 M2 (converted); for Emax: CHO, read-out: M2 % Emax cf. ACh. Summed up:
as §1

Assay [3] concerns the target T3, human muscarinic M4 receptor (Homo sapiens, UniProt P08173).
T3 construct: expressed in transfected cells
T3 sequence (P08173 1-479): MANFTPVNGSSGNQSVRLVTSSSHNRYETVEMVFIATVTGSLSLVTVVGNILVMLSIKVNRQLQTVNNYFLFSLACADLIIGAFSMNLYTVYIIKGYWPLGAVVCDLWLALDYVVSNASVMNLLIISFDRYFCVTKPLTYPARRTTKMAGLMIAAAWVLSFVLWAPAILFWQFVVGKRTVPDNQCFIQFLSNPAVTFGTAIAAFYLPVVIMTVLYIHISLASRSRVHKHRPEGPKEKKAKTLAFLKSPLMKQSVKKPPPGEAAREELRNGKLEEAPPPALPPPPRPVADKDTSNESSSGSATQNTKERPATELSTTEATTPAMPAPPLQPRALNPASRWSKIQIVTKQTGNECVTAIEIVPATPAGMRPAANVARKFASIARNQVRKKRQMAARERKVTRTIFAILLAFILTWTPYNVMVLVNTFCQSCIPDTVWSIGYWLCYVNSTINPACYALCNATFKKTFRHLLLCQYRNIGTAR
As to the kind of experiment: Alphascreen Surefire phospho-ERK1/2 functional assay, M4. The settings on record: for EC50: CHO cells stably expressing human M4, phospho-ERK1/2, read-out: pEC50 M4 (converted); for Emax: CHO. Summed up: as §1

The target in assay [4] is T4, human muscarinic M1 receptor (Homo sapiens, UniProt P11229).
T4 sequence (P11229 1-460): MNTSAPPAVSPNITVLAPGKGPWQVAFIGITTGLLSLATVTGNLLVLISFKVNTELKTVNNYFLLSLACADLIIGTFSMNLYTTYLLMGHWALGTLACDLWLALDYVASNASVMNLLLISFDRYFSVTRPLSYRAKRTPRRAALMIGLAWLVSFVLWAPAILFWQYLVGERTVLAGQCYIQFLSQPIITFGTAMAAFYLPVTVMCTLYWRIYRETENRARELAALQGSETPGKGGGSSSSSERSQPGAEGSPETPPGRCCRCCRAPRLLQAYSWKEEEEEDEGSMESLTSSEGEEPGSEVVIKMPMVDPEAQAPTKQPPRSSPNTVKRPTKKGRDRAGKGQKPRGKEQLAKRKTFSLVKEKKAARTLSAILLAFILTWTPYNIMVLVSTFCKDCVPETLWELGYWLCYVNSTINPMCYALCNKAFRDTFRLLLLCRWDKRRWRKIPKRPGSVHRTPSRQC
As to the kind of experiment: Alphascreen Surefire phospho-ERK1/2 functional assay, M1. Conditions: for EC50: CHO cells stably expressing human M1, phospho-ERK1/2, read-out: pEC50 M1 (converted); for Emax: CHO. Summed up:
as §1

Where two headings read alike, the source gives them in different places.

As usually defined, the Emax is the size of the effect at its maximum, as opposed to the concentration needed.

T1 sequence (P20309 whole entry): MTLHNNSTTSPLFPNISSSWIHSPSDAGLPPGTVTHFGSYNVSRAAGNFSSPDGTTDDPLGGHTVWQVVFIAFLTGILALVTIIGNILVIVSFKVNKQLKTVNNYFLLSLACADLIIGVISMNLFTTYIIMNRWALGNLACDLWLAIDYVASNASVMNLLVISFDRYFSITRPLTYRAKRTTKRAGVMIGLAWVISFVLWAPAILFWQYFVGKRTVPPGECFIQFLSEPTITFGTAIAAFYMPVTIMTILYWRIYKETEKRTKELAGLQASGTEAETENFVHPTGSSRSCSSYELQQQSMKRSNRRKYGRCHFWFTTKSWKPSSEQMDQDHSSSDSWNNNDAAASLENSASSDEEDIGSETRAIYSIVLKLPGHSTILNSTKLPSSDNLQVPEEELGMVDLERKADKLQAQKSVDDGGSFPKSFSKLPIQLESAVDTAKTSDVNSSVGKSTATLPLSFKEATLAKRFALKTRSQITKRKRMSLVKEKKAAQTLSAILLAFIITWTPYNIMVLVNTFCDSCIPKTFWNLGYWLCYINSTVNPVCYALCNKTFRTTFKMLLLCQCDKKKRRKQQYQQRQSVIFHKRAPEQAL

In the case of `CCOC(=O)N(C)[C@@H]1CCN(C2CCC(C#N)(c3ccccc3)CC2)C1` (single isomer, unassigned) [1-21 Isomer 2], the EC50 in assay [1] is greater than 20 µM; in assay [2], greater than 20 µM; in assay [3], greater than 20 µM; in assay [4], 0.11 µM. The maximal effect (Emax) in assay [1] amounted to 5%; in assay [2], 1%; in assay [3] (read-out: M4 % Emax cf. ACh), 15%; in assay [4] (read-out: M1 % Emax cf. ACh), 64%.

Turning to `CCOC(=O)N[C@H]1CCN(C2CCC(C#N)(c3cccc(Cl)c3)CC2)C1` (single isomer, unassigned) [1-10 Isomer 2], the EC50 in assay [1] was greater than 20 µM; in assay [2] it was greater than 20 µM; in assay [3] it was greater than 20 µM; in assay [4] it was 0.0282 µM. Besides, the maximum response (Emax) in assay [1] came to 9%; in assay [2], 6%; in assay [3] (read-out: M4 % Emax cf. ACh, CHO cells stably expressing human M4, Emax relative to ACh), 24%; in assay [4] (read-out: M1 % Emax cf. ACh, CHO cells stably expressing human M1, Emax relative to ACh), 106%.

For the origin of these results see patent US10759751B2, “Substituted spirocyclohexanes as muscarinic M1 receptor and/or M4 receptor agonists” (Heptares Therapeutics Limited, priority 2016, dated 2020).
